# According to US20060040871A1, “Bacterial transforming agent” (priority 2003, published 2006):
# Like-named read-outs stand apart in the source and are kept apart here.
# Tests used:
# Assay type in all cases: cell-based, Staphylococcus aureus
# MRSA [1] = assay: Screening on Isosensitest agar with incorporated BTA and 10 μg methicillin discs; details: BTA 0.01-1.0% in Isosensitest agar; 10 μg methicillin discs; reference MRSA (type strain), OMRSA, EMRSA-1, EMRSA-16
# Procedure: To find substances related to GBE that might have increased potency, various substances, including those with additional glycine moieties and benzylates, have been screened. Screening was carried out using Isosensitest agar (Oxoid, UK) into which various levels of potential BTAs were incorporated at levels between 0.01 and 1.0%. The agar with incorporated BTA was then used in the manner of a standard antibiotic sensitivity test using 10 μg methicillin discs. The test organism was inoculated onto the agar surface at a concentration suitable to achieve confluent growth after 18 hours incubation at 30° C. After incubation, zone diameters were compared with that achieved by the control plate (Isosensitest alone) for each test organism.
# MRSA [2] = details: 2% glycine; only in the presence of glycine
# MRSA [3] = details: for MIC of methicillin: glycine 0.02M [0.15%]
# Source text: Stored frozen plasma was pooled from five subjects.
# Human plasma may bind or otherwise inactivate foreign substances and good activity in plasma is indicative of good in vivo activity.
# MRSA [4] = assay: MIC of methicillin for MRSA isolates grown with glycine or GBE (Table 1)
smiles,measurement,setting,value
"NCC(=O)O [Glycine, glycine]",transformation of MRSA (methicillin disc zone diameter versus control plate),MRSA [1],transformed
same,transformation of MRSA into methicillin-sensitive strains,MRSA [2],transformed all MRSA into methicillin-sensitive strains
same,reduction in activity in human plasma,"MRSA [3]; 1% human plasma, approximation from Table 3",about 75%
same,MIC of methicillin,"MRSA [3]; 5518 (EMRSA-1), +1% human plasma",32 µg/mL
same,MIC of methicillin,"MRSA [3]; 5518 (EMRSA-1), no plasma",8 µg/mL
same,MIC of methicillin,"MRSA [3]; L277, +1% human plasma",32 µg/mL
same,MIC of methicillin,"MRSA [3]; L277, no plasma",8 µg/mL
same,MIC of methicillin,"MRSA [3]; L278, +1% human plasma",256 µg/mL
same,MIC of methicillin,"MRSA [3]; L278, no plasma",64 µg/mL
same,MIC of methicillin,"MRSA [3]; L279, +1% human plasma",256 µg/mL
same,MIC of methicillin,"MRSA [3]; L279, no plasma",64 µg/mL
same,MIC of methicillin,"MRSA [3]; L280, +1% human plasma",64 µg/mL
same,MIC of methicillin,"MRSA [3]; L280, no plasma",16 µg/mL
same,MIC of methicillin,"MRSA [3]; L281, +1% human plasma",32 µg/mL
same,MIC of methicillin,"MRSA [3]; L281, no plasma",8 µg/mL
same,MIC of methicillin,"MRSA [3]; L282, +1% human plasma",256 µg/mL
same,MIC of methicillin,"MRSA [3]; L282, no plasma",32 µg/mL
same,MIC of methicillin,"MRSA [3]; L283, +1% human plasma",128 µg/mL
same,MIC of methicillin,"MRSA [3]; L283, no plasma",32 µg/mL
same,MIC of methicillin,"MRSA [3]; L284, +1% human plasma",256 µg/mL
same,MIC of methicillin,"MRSA [3]; L284, no plasma",32 µg/mL
same,MIC of methicillin,"MRSA [3]; L285, +1% human plasma",256 µg/mL
same,MIC of methicillin,"MRSA [3]; L285, no plasma",32 µg/mL
same,MIC of methicillin,"MRSA [3]; L286, +1% human plasma",64 µg/mL
same,MIC of methicillin,"MRSA [3]; L286, no plasma",32 µg/mL
same,MIC of methicillin,"MRSA [3]; L287, +1% human plasma",128 µg/mL
same,MIC of methicillin,"MRSA [3]; L287, no plasma",32 µg/mL
same,MIC of methicillin,"MRSA [3]; L288, +1% human plasma",128 µg/mL
same,MIC of methicillin,"MRSA [3]; L288, no plasma",32 µg/mL
same,MIC of methicillin,"MRSA [3]; L289, +1% human plasma",256 µg/mL
same,MIC of methicillin,"MRSA [3]; L289, no plasma",32 µg/mL
same,MIC of methicillin,"MRSA [3]; L290, +1% human plasma",128 µg/mL
same,MIC of methicillin,"MRSA [3]; L290, no plasma",32 µg/mL
same,MIC of methicillin,"MRSA [3]; L291, +1% human plasma",64 µg/mL
same,MIC of methicillin,"MRSA [3]; L291, no plasma",32 µg/mL
same,MIC of methicillin,"MRSA [3]; L292, +1% human plasma",256 µg/mL
same,MIC of methicillin,"MRSA [3]; L292, no plasma",32 µg/mL
same,MIC of methicillin,"MRSA [3]; L293, +1% human plasma",128 µg/mL
same,MIC of methicillin,"MRSA [3]; L293, no plasma",32 µg/mL
same,MIC of methicillin,"MRSA [3]; L294, +1% human plasma",128 µg/mL
same,MIC of methicillin,"MRSA [3]; L294, no plasma",16 µg/mL
same,strains tested achieving the target MIC,"MRSA [4]; 0.2 M glycine, said of Table 1",50%
same,MIC of methicillin,"MRSA [4]; CD40 (EMRSA-1), glycine 0.02M (0.15%)",32 µg/mL
same,MIC of methicillin,"MRSA [4]; CD40 (EMRSA-1), glycine 0.2M (1.5%)",4 µg/mL
same,MIC of methicillin,"MRSA [4]; DS09 (EMRSA-1), glycine 0.02M (0.15%)",32 µg/mL
same,MIC of methicillin,"MRSA [4]; DS09 (EMRSA-1), glycine 0.2M (1.5%)",4 µg/mL
same,MIC of methicillin,"MRSA [4]; E15-97 (EMRSA-15), glycine 0.02M (0.15%)",32 µg/mL
same,MIC of methicillin,"MRSA [4]; E15-97 (EMRSA-15), glycine 0.2M (1.5%)",4 µg/mL
same,MIC of methicillin,"MRSA [4]; E16-96 (EMRSA-16), glycine 0.02M (0.15%)",32 µg/mL
same,MIC of methicillin,"MRSA [4]; E16-96 (EMRSA-16), glycine 0.2M (1.5%)",4 µg/mL
same,MIC of methicillin,"MRSA [4]; JF1-32 (EMRSA-1), glycine 0.02M (0.15%)",32 µg/mL
same,MIC of methicillin,"MRSA [4]; JF1-32 (EMRSA-1), glycine 0.2M (1.5%)",4 µg/mL
same,MIC of methicillin,"MRSA [4]; L265, glycine 0.02M (0.15%)",64 µg/mL
same,MIC of methicillin,"MRSA [4]; L265, glycine 0.2M (1.5%)",8 µg/mL
same,MIC of methicillin,"MRSA [4]; L266, glycine 0.02M (0.15%)",64 µg/mL
same,MIC of methicillin,"MRSA [4]; L266, glycine 0.2M (1.5%)",8 µg/mL
same,MIC of methicillin,"MRSA [4]; L267, glycine 0.02M (0.15%)",32 µg/mL
same,MIC of methicillin,"MRSA [4]; L267, glycine 0.2M (1.5%)",8 µg/mL
same,MIC of methicillin,"MRSA [4]; L268, glycine 0.02M (0.15%)",32 µg/mL
same,MIC of methicillin,"MRSA [4]; L268, glycine 0.2M (1.5%)",8 µg/mL
same,MIC of methicillin,"MRSA [4]; L269, glycine 0.02M (0.15%)",16 µg/mL
same,MIC of methicillin,"MRSA [4]; L269, glycine 0.2M (1.5%)",4 µg/mL
same,MIC of methicillin,"MRSA [4]; L270, glycine 0.02M (0.15%)",8 µg/mL
same,MIC of methicillin,"MRSA [4]; L270, glycine 0.2M (1.5%)",4 µg/mL
same,MIC of methicillin,"MRSA [4]; L271, glycine 0.02M (0.15%)",8 µg/mL
same,MIC of methicillin,"MRSA [4]; L271, glycine 0.2M (1.5%)",4 µg/mL
same,MIC of methicillin,"MRSA [4]; L272, glycine 0.02M (0.15%)",16 µg/mL
same,MIC of methicillin,"MRSA [4]; L272, glycine 0.2M (1.5%)",2 µg/mL
same,MIC of methicillin,"MRSA [4]; L273, glycine 0.02M (0.15%)",8 µg/mL
same,MIC of methicillin,"MRSA [4]; L273, glycine 0.2M (1.5%)",4 µg/mL
same,MIC of methicillin,"MRSA [4]; L274, glycine 0.02M (0.15%)",16 µg/mL
same,MIC of methicillin,"MRSA [4]; L274, glycine 0.2M (1.5%)",4 µg/mL
same,MIC of methicillin,"MRSA [4]; L275, glycine 0.02M (0.15%)",32 µg/mL
same,MIC of methicillin,"MRSA [4]; L275, glycine 0.2M (1.5%)",8 µg/mL
same,MIC of methicillin,"MRSA [4]; L276, glycine 0.02M (0.15%)",16 µg/mL
same,MIC of methicillin,"MRSA [4]; L276, glycine 0.2M (1.5%)",4 µg/mL
same,MIC of methicillin,"MRSA [4]; L277, glycine 0.02M (0.15%)",8 µg/mL
same,MIC of methicillin,"MRSA [4]; L277, glycine 0.2M (1.5%)",4 µg/mL
same,MIC of methicillin,"MRSA [4]; L278, glycine 0.02M (0.15%)",64 µg/mL
same,MIC of methicillin,"MRSA [4]; L278, glycine 0.2M (1.5%)",16 µg/mL
same,MIC of methicillin,"MRSA [4]; L279, glycine 0.02M (0.15%)",64 µg/mL
same,MIC of methicillin,"MRSA [4]; L279, glycine 0.2M (1.5%)",2 µg/mL
same,MIC of methicillin,"MRSA [4]; L280, glycine 0.02M (0.15%)",16 µg/mL
